Test results as given in patent US3998874A, “Phenylene di-ethers” (Gist-Brocades N.V., priority 1974, dated 1976).
Counter-ions that a name gives are not always drawn.

Key:
[1] = system: aconitine-induced arrhythmias; test: in vivo antagonism of aconitine-induced arrhythmias; design: species or system male rats; conditions: for % protection: vs control; for Dose of aconitine inducing arrhythmias: aconitine infusion 5 μg/kg/min
Experimental: This test was carried out in male rats under urethane anaesthesia as described by B. Vargaftig and J. L. Coignet, Eur. J. Pharmacol., 6, 49 (1969). It was estimated what dose of aconitine in an i.v. infusion (5 μ g/kg/min, rate 0.2 ml/min) would induce arrhythmias. Three minutes before the infusion physiological saline with or without test compound was injected i.v.

cardiac β-receptors = biological target: T1, cardiac β-receptors (Cavia porcellus, UniProt H0W3H1); test: antagonism to cardiac β-receptors on isolated, spontaneously beating right atrium (isoprenaline chronotropism, pA2); conditions: isolated right atrium guinea pig, vs isoprenaline; R = isopropyl for A-E
T1 construct: on the isolated, spontaneously beating, right atrium of the guinea pig; from tissue; host or cells: guinea pig right atrium (isolated, spontaneously beating)

[2] = biological target: T2, β-adrenergic (guinea pig tracheal chain) (Cavia porcellus, UniProt Q8K4Z4); test: β-adrenergic blocking activity on guinea pig tracheal chain (antagonism of isoprenaline relaxation, pA2); conditions: vs isoprenaline, R = isopropyl for A-E
T2 construct: determined on the guinea pig tracheal chain; from tissue; host or cells: guinea pig tracheal chain (isolated)
Experimental: The β-adrenergic blocking activity was determined on the guinea pig tracheal chain prepared as described by H. Timmerman and N. G. Scheffer, J. Pharm. […] Int. Pharmacodyn. […] The pA2-values were calculated according to Van Rossum from the parallel shift to the right of the log dose - response curves.

[3] = system: right atrial muscles from guinea pigs; test: anti-arrhythmic activity in vitro, ouabain-induced arrhythmia in right atrial muscles; design: species or system guinea pig; conditions: Cavia porcellus; minimal drug concentration (M) preventing any arrhythmia, ouabain 0.5 μg/ml, 37° C, pH 7.4; read-out: Antiarrh. act. -log min. dose (converted)
Experimental: The anti-arrhythmic activity in vitro was determined as follows. Right atrial muscles from guinea pigs were dissected and freed from the appendage. They were suspended in 100 ml of a modified Ringer-Locke solution (g/l: […] Spontaneous contractions were recorded on a Schwarzer ECG (Cardioscript III) using an […] Transducer (8101) in a Wheatstone bridge circuit. Tension was so adjusted that contractions reached maximal amplitude while keeping distortion of the baseline minimal. After a 40-min equilibrium period the test compound was added and for 30 minutes contractile force and rate were recorded at 1-min intervals for 10 seconds. Next, ouabain was added in a concentration of 0.5 μg/ml and force and rate were measured at 1-min intervals over a 60-min period. […] This was confirmed at least once. Control experiments without test compounds were carried out daily.

[4] = hygroscopicity (observation in the synthesis example); type: physicochemical; conditions: dihydrochloride

T1 sequence (H0W3H1 1-470): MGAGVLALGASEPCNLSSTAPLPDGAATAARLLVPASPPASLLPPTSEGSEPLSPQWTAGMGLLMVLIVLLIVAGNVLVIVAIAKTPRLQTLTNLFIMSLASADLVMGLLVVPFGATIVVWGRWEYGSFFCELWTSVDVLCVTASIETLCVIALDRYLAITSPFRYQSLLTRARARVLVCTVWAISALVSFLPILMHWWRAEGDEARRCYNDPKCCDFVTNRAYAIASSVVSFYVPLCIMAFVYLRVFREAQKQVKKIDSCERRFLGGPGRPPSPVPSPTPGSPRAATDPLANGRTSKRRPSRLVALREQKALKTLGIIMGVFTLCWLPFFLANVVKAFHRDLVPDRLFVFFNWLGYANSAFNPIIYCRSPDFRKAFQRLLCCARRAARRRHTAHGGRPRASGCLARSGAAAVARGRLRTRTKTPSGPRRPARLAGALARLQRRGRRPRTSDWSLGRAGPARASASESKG
T2 sequence (Q8K4Z4 whole entry): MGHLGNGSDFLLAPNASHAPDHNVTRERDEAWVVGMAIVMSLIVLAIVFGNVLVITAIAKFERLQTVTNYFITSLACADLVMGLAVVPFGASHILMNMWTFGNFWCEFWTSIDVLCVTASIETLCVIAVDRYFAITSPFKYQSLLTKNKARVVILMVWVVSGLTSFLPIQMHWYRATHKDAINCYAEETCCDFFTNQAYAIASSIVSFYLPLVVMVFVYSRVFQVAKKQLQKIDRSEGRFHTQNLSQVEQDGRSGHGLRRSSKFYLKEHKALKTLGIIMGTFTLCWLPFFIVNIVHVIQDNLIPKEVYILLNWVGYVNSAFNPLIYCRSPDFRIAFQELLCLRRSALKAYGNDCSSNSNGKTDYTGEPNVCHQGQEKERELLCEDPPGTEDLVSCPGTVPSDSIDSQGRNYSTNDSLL

With `CC(C)NCC(O)COc1cccc(C(C)C)c1OCC(O)CNC(C)C` (stereo not shown) [C, 1,1'-[(3-isopropyl-o-phenylene)dioxy]-bis-[3-(isopropylamino)-propan-2-ol]dihydrochloride] the “% protection” value ([1]; 0.5 mg/kg i.v.) was 44.0%, the “% protection” value ([1]; 1.0 mg/kg i.v.) was 79.6% and the “% protection” value ([1]; 2.0 mg/kg i.v.) was 135.5%. The “Dose of aconitine inducing arrhythmias” value ([1]; test compound 0.5 mg/kg i.v.) was 0.0458 mg/kg, the “Dose of aconitine inducing arrhythmias” value ([1]; test compound 1.0 mg/kg i.v.) was 0.0571 mg/kg and the “Dose of aconitine inducing arrhythmias” value ([1]; test compound 2.0 mg/kg i.v.) was 0.0749 mg/kg. The Kb (cardiac β-receptors) was 25700 nM, the pA2 trachea [2] was 5.35 (±0.11) and the minimal effective concentration [3] was 1e-05 M.
In the case of `Cc1cccc(OCC(O)CNC(C)C)c1OCC(O)CNC(C)C.Cl.Cl` (stereo not shown) [B, 1,1'-[(3-methyl-o-phenylene)dioxy]-bis-[3-(isopropylamino)propan-2-ol] dihydrochloride], the Kb (cardiac β-receptors) is reported as 3310 nM, the pA2 trachea [2] is reported as 5.80 (±0.08) and the minimal effective concentration [3] is reported as 2e-05 M.
In the case of `CC(C)NCC(O)COc1ccc(C(C)C)cc1OCC(O)CNC(C)C.Cl.Cl` (stereo not shown) [E, 1,1'-[(4-isopropyl-o-phenylene)dioxy]-bis-[3-(isopropylamino)-propan-2-ol] dihydrochloride], the hygroscopicity [4] is reported as “very hydroscopic”, the Kb (cardiac β-receptors) is reported as 2290 nM and the pA2 trachea [2] is reported as 6.48 (±0.09). The minimal effective concentration [3] was 2e-05 M.
For `CC(C)(C)NCC(O)COc1ccccc1OCC(O)CNC(C)(C)C` (stereo not shown) [F, 1,1'-(o-phenylenedioxy)-bis-[3-(tert.-butylamino)-propan-2-ol]dihydrochloride], the “% protection” value ([1]; 4 mg/kg i.v.) was 41.7%, the “% protection” value ([1]; 8 mg/kg i.v.) was 104.2% and the “% protection” value ([1]; 16 mg/kg i.v.) was 158.6%. For the same compound, the “Dose of aconitine inducing arrhythmias” value ([1]; test compound 4 mg/kg i.v.) was 0.034 mg/kg, the “Dose of aconitine inducing arrhythmias” value ([1]; test compound 8 mg/kg i.v.) was 0.049 mg/kg and the “Dose of aconitine inducing arrhythmias” value ([1]; test compound 16 mg/kg i.v.) was 0.062 mg/kg.
For `Cc1ccc(OCC(O)CNC(C)C)c(OCC(O)CNC(C)C)c1.Cl.Cl` (stereo not shown) [D, 1,1'-[(4-methyl-o-phenylene)dioxy]-bis-[3-(isopropylamino)-propan-2-ol] dihydrochloride], the Kb (cardiac β-receptors) was 603 nM, the pA2 trachea [2] was 6.66 (±0.09) and the minimal effective concentration [3] was 5.01e-05 M.
Work on `CC(C)NCC(O)COc1ccccc1` (stereo not shown) [G, 1-(isopropylamino)-3-phenoxy-2-propanol, reference compound] yielded a Kb (cardiac β-receptors) of 0.977 nM, a Kb ([2]; read-out: pA2 trachea (converted)) of 24.5 nM and a minimal effective concentration [3] of 0.000302 M.
With `CC(C)NCC(O)COc1ccccc1OCC(O)CNC(C)C` (stereo not shown) [A, 1,1'-(o-phenylenedioxy)-bis-[3-(isoproyl-amino)propan-2-ol] dihydrochloride] the “% protection” value ([1]; 4 mg/kg i.v.) was 12.9%, the “% protection” value ([1]; 8 mg/kg i.v.) was 35.5% and the “% protection” value ([1]; 16 mg/kg i.v.) was 110.8%. The “Dose of aconitine inducing arrhythmias” value ([1]; test compound 4 mg/kg i.v.) was 0.0315 mg/kg, the “Dose of aconitine inducing arrhythmias” value ([1]; test compound 8 mg/kg i.v.) was 0.0378 mg/kg and the “Dose of aconitine inducing arrhythmias” value ([1]; test compound 16 mg/kg i.v.) was 0.0588 mg/kg. The Kb (cardiac β-receptors) was 324 nM, the pA2 trachea [2] was 6.73 (±0.05) and the minimal effective concentration [3] was 0.0002 M.
